Assays:
Format in all cases: cell-based
[1] = target: T1, Nrf2 (Homo sapiens, UniProt Q16236); experiment: Protein degradation assay in huH1 cells by Western blot; design: tested for protein degradation in huH1 cells; host or cells: huH1 (Huh1) human hepatoma cells
T1 sequence (Q16236 1-605): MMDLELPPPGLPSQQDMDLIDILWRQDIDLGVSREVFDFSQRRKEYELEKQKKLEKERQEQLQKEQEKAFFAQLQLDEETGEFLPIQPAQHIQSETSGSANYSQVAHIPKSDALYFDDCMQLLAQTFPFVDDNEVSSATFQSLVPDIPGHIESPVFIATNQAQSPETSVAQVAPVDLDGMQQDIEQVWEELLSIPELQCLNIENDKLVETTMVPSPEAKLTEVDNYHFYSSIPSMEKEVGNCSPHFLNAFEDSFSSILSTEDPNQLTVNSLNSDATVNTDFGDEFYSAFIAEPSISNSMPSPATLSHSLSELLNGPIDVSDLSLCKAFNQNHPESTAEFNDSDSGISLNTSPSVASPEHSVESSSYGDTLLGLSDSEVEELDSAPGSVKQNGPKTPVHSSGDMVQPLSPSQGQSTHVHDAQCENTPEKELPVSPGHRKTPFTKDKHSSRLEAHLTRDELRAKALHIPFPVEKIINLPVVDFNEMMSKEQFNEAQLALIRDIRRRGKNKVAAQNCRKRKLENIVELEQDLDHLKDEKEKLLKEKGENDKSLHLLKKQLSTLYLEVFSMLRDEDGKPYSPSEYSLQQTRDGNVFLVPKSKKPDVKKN
Procedure: Representative Compounds of the Disclosure were tested for protein degradation in huH1 cells (Vendor: JCRB: Cat #JCRB0199; Description: Human hepatoma) by Western blot analysis according to the following general protocol.
Day 0: Plated the Huh1 cells into 10-cm dishes (1.5×10^6/dish)
Day 1: Treated the cells with compounds at five concentrations, e.g., 0.01 μM, 0.04 μM, 0.11 μM, 0.33 μM and 1 μM; or 0.4 μM, 1.1 μM, 3.3 μM, 10 μM, and 30 μM.
Day 4: Harvested the cell pellets, spilt 1/3 of the pellet to extract RNA by Nucleospin RNA plus kit and measure Nrf2 and GPX2 by RT-PCR, the remaining 2/3 of the pellet to run Western blot analysis.
• a) Cell samples were lysed with lysis buffer (1×Cell lysis buffer added Protease inhibitor and phosphatase inhibitor) on ice for 5˜10 min and spun at 15,000 rpm in an Eppendorf microfuge for 15 min at 4° C. • b) The protein supernatant was collected in a new 1.5 ml tube and the protein concentrations were determined by the Pierce BCA kit (Thermo #23225). • c) Mixed protein sample with 5×SDS-PAGE loading buffer. • d) Boiled for 5 min. • e) Cooled at RT or on ice for 5 min. • f) Flash spun to bring down condensation prior to loading gel.
• a) After flash spinning the samples, 20 μg protein were loaded into the wells. • b) Using SDS-PAGE running buffer. • c) Run with Constant Voltage (70 V) for 1.5-2 hr. Membrane transfer • a) Assembled “sandwich” for Invitrogen iBlot. • b) Transferred for 9 min using P0 program. • c) Immersed membrane in Odyssey blocking buffer or 5% BSA for at least 1 hr.
• a) Incubated with 1st Antibody 1:500 diluted in blocking buffer overnight at 4° C. • b) Washed 4×15 min with 0.05-0.1% Tween 20 in TBS. • c) Incubated with secondary antibody 1:10K diluted in blocking buffer for at least 1 hr at RT. • d) Washed 3×15 min with 0.05-0.1% Tween 20 in TBS. • e) Detected with ODYSSEY (Li—COR) The results are provided in Table 5.

[2] = tested on: A549; experiment: Cancer cell viability, A549 (CellTiter-Glo); details: Homo sapiens, 72 h, A549 cells, 3 days, read-out: Cellular IC50 (μM) A549
Summary of the method: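 A549 and/or LK-2 lung carcinoma cells seeded overnight (20 K/mL A549; 35 K/mL LK-2), then exposed to compound for 3 days. Viability read as CellTiter-Glo luminescence after 15 min lysis; data fitted to curves.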

[3] = tested on: LK-2; experiment: Cancer cell viability, LK-2 (CellTiter-Glo); details: Homo sapiens, LK-2, 72 h, LK-2 cells, 3 days, read-out: Cellular IC50 (μM) LK-2
Summary of the method: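 A549 and LK-2 cells were seeded overnight at 20 K/mL and 35 K/mL respectively. They were then exposed for 3 days to nine three-fold dilutions, typically from 30 µM final. Viability was read as CellTiter-Glo luminescence after a 15 min lysis.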

[4] = target: T1, Nrf2; experiment: Nrf2 degradation in A549 HiBiT-Nrf2 cells, Nano-Glo HiBiT lytic detection (HiBiT readout); design: host or cells: A549 HiBiT-Nrf2 cells (engineered line bought from Promega)
Summary of the method: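 A549 HiBiT-Nrf2 cells seeded at 5,000 cells/well in Ham's F-12 with 10% FBS, then treated next day for 6 h and 20 h at 37 °C, 5% CO2. Nrf2 degradation read by Nano-Glo HiBiT lytic luminescence after 30 min at room temperature; staurosporine served as control.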

[5] = X marks the class >10 μM, read-out: DC50 huHI1 cells >10 μM
[6] = X marks the class 0.1-1 μM, read-out: DC50 huHI1 cells 0.1-1 μM

With Cc1ccccc1C(=O)N1CCc2cc(-c3nc(NC(=O)Cc4cccc(OCCOCCOCCOCCOCCOCCNc5cccc6c5C(=O)N(C5CCC(=O)NC5=O)C6=O)c4)sc3C)ccc21 (stereo not shown) [Cpd. No. 5, 2-(3-((17-((2-(2,6-dioxopiperidin-3-yl)-1,3-dioxoisoindolin-4-yl)amino)-3,6,9,12,15-pentaoxaheptadecyl)oxy)phenyl)-N-(5-methyl-4-(1-(2-methylbenzoyl)indolin-5-yl)thiazol-2-yl)acetamide] the DC50 [1, 5] was greater than 10000 nM.
In the case of Cc1ccccc1C(=O)N1CCc2cc(-c3nc(NC(=O)Cc4cccc(OCCOCCOCCOCCOCCNc5cccc6c5C(=O)N(C5CCC(=O)NC5=O)C6=O)c4)sc3C)ccc21 (stereo not shown) [Cpd. No. 4, 2-(3-((14-((2-(2,6-dioxopiperidin-3-yl)-1,3-dioxoisoindolin-4-yl)amino)-3,6,9,12-tetraoxatetradecyl)oxy)phenyl)-N-(5-methyl-4-(1-(2-methylbenzoyl)indolin-5-yl)thiazol-2-yl)acetamide], the DC50 [1, 5] is reported as greater than 10000 nM.
Cc1ccccc1C(=O)N1CCc2cc(-c3nc(NC(=O)Cc4cccc(OCCOCCOc5cccc6c5C(=O)N(C5CCC(=O)NC5=O)C6=O)c4)sc3C)ccc21 (stereo not shown) [Cpd. No. 12, 2-(3-(2-(2-((2-(2,6-dioxopiperidin-3-yl)-1,3-dioxoisoindolin-4-yl)oxy)ethoxy)ethoxy)phenyl)-N-(5-methyl-4-(1-(2-methylbenzoyl)indolin-5-yl)thiazol-2-yl)acetamide] was tested, and the IC50 [2] was roughly 30 µM, the IC50 [3] was 0.3 µM and the DC50 ([4]; 6 h, read-out: DC50 (nM) at 6 h) was greater than 3000 nM. The DC50 ([4]; 20 h, read-out: DC50 (nM) at 20 h) was greater than 3000 nM and the DC50 [1, 6] was 100 to 1000 nM.
For Cc1ccccc1C(=O)N1CCc2cc(-c3nc(NC(=O)Cc4cccc(OCCOCCNc5cccc6c5C(=O)N(C5CCC(=O)NC5=O)C6=O)c4)sc3C)ccc21 (stereo not shown) [Cpd. No. 1, 2-(3-(2-(2-((2-(2,6-dioxopiperidin-3-yl)-1,3-dioxoisoindolin-4-yl)amino)ethoxy)ethoxy)phenyl)-N-(5-methyl-4-(1-(2-methylbenzoyl)indolin-5-yl)thiazol-2-yl)acetamide], the IC50 [2] was 0.1 µM, the IC50 [3] was 0.04 µM and the DC50 [1, 6] was 100 to 1000 nM.
Cc1ccccc1C(=O)N1CCc2cc(-c3nc(NC(=O)Cc4cccc(OCCOCCOCCOCCNc5cccc6c5C(=O)N(C5CCC(=O)NC5=O)C6=O)c4)sc3C)ccc21 (stereo not shown) [Cpd. No. 3, 2-(3-(2-(2-(2-(2-((2-(2,6-dioxopiperidin-3-yl)-1,3-dioxoisoindolin-4-yl)amino)ethoxy)ethoxy)ethoxy)ethoxy)phenyl)-N-(5-methyl-4-(1-(2-methylbenzoyl)indolin-5-yl)thiazol-2-yl)acetamide] showed a DC50 [1, 5] greater than 10000 nM.
Work on Cc1ccccc1C(=O)N1CCc2cc(-c3nc(NC(=O)Cc4cccc(OCCOCCOCCOc5cccc6c5C(=O)N(C5CCC(=O)NC5=O)C6=O)c4)sc3C)ccc21 (stereo not shown) [Cpd. No. 7, 2-(3-(2-(2-(2-((2-(2,6-dioxopiperidin-3-yl)-1,3-dioxoisoindolin-4-yl)oxy)ethoxy)ethoxy)ethoxy)phenyl)-N-(5-methyl-4-(1-(2-methylbenzoyl)indolin-5-yl)thiazol-2-yl)acetamide] yielded a DC50 ([1]; X marks the class <100 nM, read-out: DC50 huHI1 cells <100 nM) of less than 100 nM.
Work on Cc1ccccc1C(=O)N1CCc2cc(-c3nc(NC(=O)Cc4cccc(OCCOCCOCCOCCOc5ccc6c(c5)C(=O)N(C5CCC(=O)NC5=O)C6=O)c4)sc3C)ccc21 (stereo not shown) [Cpd. No. 13, 2-(3-(2-(2-(2-(2-((2-(2,6-dioxopiperidin-3-yl)-1,3-dioxoisoindolin-5-yl)oxy)ethoxy)ethoxy)ethoxy)ethoxy)phenyl)-N-(5-methyl-4-(1-(2-methylbenzoyl)indolin-5-yl)thiazol-2-yl)acetamide] yielded a DC50 [1, 6] of 100 to 1000 nM.
Cc1ccccc1C(=O)N1CCc2cc(-c3nc(NC(=O)Cc4cccc(OCCOCCOCCOCCOc5cccc6c5C(=O)N(C5CCC(=O)NC5=O)C6=O)c4)sc3C)ccc21 (stereo not shown) [Cpd. No. 8, 2-(3-(2-(2-(2-(2-((2-(2,6-dioxopiperidin-3-yl)-1,3-dioxoisoindolin-4-yl)oxy)ethoxy)ethoxy)ethoxy)ethoxy)phenyl)-N-(5-methyl-4-(1-(2-methylbenzoyl)indolin-5-yl)thiazol-2-yl)acetamide] was tested, and the DC50 [1, 5] was greater than 10000 nM.
Cc1ccccc1C(=O)N1CCc2cc(-c3nc(NC(=O)Cc4cccc(OCCOCCOCCNc5cccc6c5C(=O)N(C5CCC(=O)NC5=O)C6=O)c4)sc3C)ccc21 (stereo not shown) [Cpd. No. 2, 2-(3-(2-(2-(2-((2-(2,6-dioxopiperidin-3-yl)-1,3-dioxoisoindolin-4-yl)amino)ethoxy)ethoxy)ethoxy)phenyl)-N-(5-methyl-4-(1-(2-methylbenzoyl)indolin-5-yl)thiazol-2-yl)acetamide] showed an IC50 [2] greater than 30 µM and a DC50 [1, 5] greater than 10000 nM.

Reference: patent US20260055097A9, “NRF2 PROTEIN DEGRADERS” (Ganymede Oncology, Inc., priority 2022, published 2026)
